# US20230085307A1, “PYRIDAZINONE COMPOUND AND HERBICIDE” (NISSAN CHEMICAL CORPORATION, priority 2019, published 2023)
# Tests used:
# [1] = test system: redroot pigweed; test: Test Example 5: herbicidal effect by foliage application, plastic box (Table 20, symbol N); type: in vivo, redroot pigweed (Amaranthus retroflexus); conditions: evaluated three weeks after application
# Outline: (§1)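 Post-emergence foliar test in sterilized diluvial soil. Compound applied as water-diluted emulsion at a predetermined rate to 14-day-old plants; evaluation at three weeks.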
# [2] = test system: green foxtail; test: Test Example 4: herbicidal effect by soil treatment (Table 19, symbol G); type: in vivo, green foxtail (Setaria viridis); conditions: 320 g/ha
# Outline: (§2)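 Scoring uses the grading scale of an earlier test, three weeks post-application. Treatment consists of spraying a diluted emulsion formulation across the surface of sterilized diluvial soil in which seeds are buried near 1.5 cm deep; boxes are kept in a greenhouse between 25° C. and 30° C.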
# [3] = test system: Italian ryegrass; test: Test Example 4: herbicidal effect by soil treatment (Table 19, symbol K); type: in vivo, Italian ryegrass (Lolium multiflorum); conditions: 320 g/ha
# Outline: as §2
# [4] = test system: blackgrass; test: Test Example 5: herbicidal effect by foliage application, plastic box (Table 20, symbol J); type: in vivo, blackgrass (Alopecurus myosuroides); conditions: evaluated three weeks after application
# Outline: as §1
# [5] = test system: chickweed; test: Test Example 4: herbicidal effect by soil treatment (Table 19, symbol P); type: in vivo, common chickweed (Stellaria media); conditions: 320 g/ha
# Outline: as §2
# [6] = test system: barnyard grass; test: Test Example 5: herbicidal effect by foliage application, plastic box (Table 20, symbol H); type: in vivo, barnyard grass (Echinochloa crus-galli); conditions: evaluated three weeks after application
# Outline: as §1
# [7] = test system: redroot pigweed; test: Test Example 4: herbicidal effect by soil treatment (Table 19, symbol N); type: in vivo, redroot pigweed (Amaranthus retroflexus); conditions: 320 g/ha
# Outline: as §2
# [8] = test system: southern crabgrass; test: Test Example 5: herbicidal effect by foliage application, plastic box (Table 20, symbol F); type: in vivo, southern crabgrass (Digitaria ciliaris); conditions: evaluated three weeks after application
# Outline: as §1
# [9] = test system: wild oat; test: Test Example 5: herbicidal effect by foliage application, plastic box (Table 20, symbol I); type: in vivo, wild oat (Avena fatua); conditions: evaluated three weeks after application
# Outline: as §1
# [10] = test system: Italian ryegrass; test: Test Example 5: herbicidal effect by foliage application, plastic box (Table 20, symbol K); type: in vivo, Italian ryegrass (Lolium multiflorum); conditions: evaluated three weeks after application
# Outline: as §1
# [11] = test system: windgrass; test: Test Example 4: herbicidal effect by soil treatment (Table 19, symbol L); type: in vivo, windgrass (Apera spica-venti); conditions: 320 g/ha
# Outline: as §2
# [12] = test system: persian speedwell; test: Test Example 5: herbicidal effect by foliage application, plastic box (Table 20, symbol R); type: in vivo, Persian speedwell (Veronica persica); conditions: evaluated three weeks after application
# Outline: as §1
# [13] = test system: wild oat; test: Test Example 4: herbicidal effect by soil treatment (Table 19, symbol I); type: in vivo, wild oat (Avena fatua); conditions: 320 g/ha
# Outline: as §2
# [14] = test system: barnyard grass; test: Test Example 3: herbicidal effect by foliage application, Wagner pot (Table 18, symbol H); type: in vivo, barnyard grass (Echinochloa crus-galli); conditions: 320 g/ha
# Outline: (§3)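 Plants were sown in alluvial soil held under 0.1–0.5 cm standing water and grown 14 days in a greenhouse at 25–30 °C. An emulsifiable formulation, water-diluted to the set dose, was then sprayed onto the foliage, and effects were scored three weeks later using previously defined criteria.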
# [15] = test system: chickweed; test: Test Example 5: herbicidal effect by foliage application, plastic box (Table 20, symbol P); type: in vivo, common chickweed (Stellaria media); conditions: evaluated three weeks after application
# Outline: as §1
# [16] = test system: barnyard grass; test: Test Example 4: herbicidal effect by soil treatment (Table 19, symbol H); type: in vivo, barnyard grass (Echinochloa crus-galli); conditions: 320 g/ha
# Outline: as §2
# [17] = test system: late watergrass; test: Test Example 1: herbicidal activity, application before weed generation under submerged conditions (Table 16, symbol A); type: in vivo, late watergrass (Echinochloa oryzicola)
# Outline: (§4)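 Emulsion formulation, water-diluted to set dose, was put onto the flooded surface (4 cm depth, alluvial soil) the same day weeds were sown and 2.5-leaf rice transplanted. After 3 weeks at 25-30 °C under glass, each species was rated 0 (≤5% kill) to 5 (≥90% kill).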
# [18] = test system: velvetleaf; test: Test Example 5: herbicidal effect by foliage application, plastic box (Table 20, symbol M); type: in vivo, velvetleaf (Abutilon theophrasti); conditions: evaluated three weeks after application
# Outline: as §1
# [19] = test system: lambsquarters; test: Test Example 4: herbicidal effect by soil treatment (Table 19, symbol O); type: in vivo, lambsquarters (Chenopodium album); conditions: 320 g/ha
# Outline: as §2
# [20] = test system: velvetleaf; test: Test Example 4: herbicidal effect by soil treatment (Table 19, symbol M); type: in vivo, velvetleaf (Abutilon theophrasti); conditions: 320 g/ha
# Outline: as §2
# [21] = test system: oval-leafed pondweed; test: Test Example 1: herbicidal activity, application before weed generation under submerged conditions (Table 16, symbol C); type: in vivo, oval-leafed pondweed (Monochoria vaginalis)
# Outline: as §4
# [22] = test system: southern crabgrass; test: Test Example 4: herbicidal effect by soil treatment (Table 19, symbol F); type: in vivo, southern crabgrass (Digitaria ciliaris); conditions: 320 g/ha
# Outline: as §2
# [23] = test system: green foxtail; test: Test Example 5: herbicidal effect by foliage application, plastic box (Table 20, symbol G); type: in vivo, green foxtail (Setaria viridis); conditions: evaluated three weeks after application
# Outline: as §1
# [24] = test system: windgrass; test: Test Example 5: herbicidal effect by foliage application, plastic box (Table 20, symbol L); type: in vivo, windgrass (Apera spica-venti); conditions: evaluated three weeks after application
# Outline: as §1
# [25] = test system: rice flat sedge; test: Test Example 3: herbicidal effect by foliage application, Wagner pot (Table 18, symbol E); type: in vivo, rice flat sedge (Cyperus iria); conditions: 320 g/ha
# Outline: as §3
# [26] = test system: Chinese sprangletop; test: Test Example 3: herbicidal effect by foliage application, Wagner pot (Table 18, symbol D); type: in vivo, chinese sprangletop (Leptochloa chinensis); conditions: 320 g/ha
# Outline: as §3
# [27] = test system: lambsquarters; test: Test Example 5: herbicidal effect by foliage application, plastic box (Table 20, symbol O); type: in vivo, lambsquarters (Chenopodium album); conditions: evaluated three weeks after application
# Outline: as §1
# [28] = test system: blackgrass; test: Test Example 4: herbicidal effect by soil treatment (Table 19, symbol J); type: in vivo, blackgrass (Alopecurus myosuroides); conditions: 320 g/ha
# Outline: as §2
# [29] = test system: Japanese bulrush; test: Test Example 1: herbicidal activity, application before weed generation under submerged conditions (Table 16, symbol B); type: in vivo, Japanese bulrush (Schoenoplectus juncoides)
# Outline: as §4
# [30] = amount of applied herbicide 320 g/ha, foliage application after 14-day growth
# [31] = amount of applied herbicide 320 g/ha
smiles,measurement,setting,value
Cc1nn(C)c(=O)c(-c2c(-c3ccc(OS(=O)(=O)C(F)(F)F)cc3)sc3ccc(F)cc23)c1O [2-075],herbicidal effect on N: redroot pigweed,"[1]; foliage application, 320 g/ha",2 (Herbicidal rate of 20% or more and less than 40%)
same,"herbicidal effect rating, G: green foxtail",[2],0 (Herbicidal rate of 5% or less (almost no effect))
same,"herbicidal effect rating, K: Italian ryegrass",[3],0 (Herbicidal rate of 5% or less (almost no effect))
same,herbicidal effect on J: blackgrass,"[4]; foliage application, 320 g/ha",0 (Herbicidal rate of 5% or less (almost no effect))
same,"herbicidal effect rating, P: chickweed",[5],0 (Herbicidal rate of 5% or less (almost no effect))
same,herbicidal effect on H: barnyard grass,"[6]; foliage application, 320 g/ha",0 (Herbicidal rate of 5% or less (almost no effect))
same,"herbicidal effect rating, N: redroot pigweed",[7],1 (Herbicidal rate of 5% or more and less than 20%)
same,herbicidal effect on F: southern crabgrass,"[8]; foliage application, 320 g/ha",0 (Herbicidal rate of 5% or less (almost no effect))
same,herbicidal effect on I: wild oat,"[9]; foliage application, 320 g/ha",0 (Herbicidal rate of 5% or less (almost no effect))
same,herbicidal effect on K: Italian ryegrass,"[10]; foliage application, 320 g/ha",0 (Herbicidal rate of 5% or less (almost no effect))
same,"herbicidal effect rating, L: windgrass",[11],0 (Herbicidal rate of 5% or less (almost no effect))
same,herbicidal effect on R: persian speedwell,"[12]; foliage application, 320 g/ha",5 (Herbicidal rate of 90% or more (almost completely withered))
same,"herbicidal effect rating, I: wild oat",[13],0 (Herbicidal rate of 5% or less (almost no effect))
same,"herbicidal effect on H (barnyard grass), rating 0-5",[14],2 (Herbicidal rate of 20% or more and less than 40%)
same,herbicidal effect on P: chickweed,"[15]; foliage application, 320 g/ha",3 (Herbicidal rate of 40% or more and less than 70%)
same,"herbicidal effect rating, H: barnyard grass",[16],0 (Herbicidal rate of 5% or less (almost no effect))
same,Herbicidal effect on A: late watergrass (grade 0-5),[17]; 320 g/ha applied herbicide,2 (Herbicidal rate of 20% or more and less than 40%)
same,herbicidal effect on M: velvetleaf,"[18]; foliage application, 320 g/ha",3 (Herbicidal rate of 40% or more and less than 70%)
same,"herbicidal effect rating, O: lambsquarters",[19],3 (Herbicidal rate of 40% or more and less than 70%)
same,"herbicidal effect rating, M: velvetleaf",[20],0 (Herbicidal rate of 5% or less (almost no effect))
same,Herbicidal effect on C: oval-leafed pondweed (grade 0-5),[21]; 320 g/ha applied herbicide,0 (Herbicidal rate of 5% or less (almost no effect))
same,"herbicidal effect rating, F: southern crabgrass",[22],0 (Herbicidal rate of 5% or less (almost no effect))
same,herbicidal effect on G: green foxtail,"[23]; foliage application, 320 g/ha",0 (Herbicidal rate of 5% or less (almost no effect))
same,herbicidal effect on L: windgrass,"[24]; foliage application, 320 g/ha",0 (Herbicidal rate of 5% or less (almost no effect))
same,"herbicidal effect on E (rice flat sedge), rating 0-5",[25],4 (Herbicidal rate of 70% or more and less than 90%)
same,"herbicidal effect on D (Chinese sprangletop), rating 0-5",[26],2 (Herbicidal rate of 20% or more and less than 40%)
same,herbicidal effect on O: lambsquarters,"[27]; foliage application, 320 g/ha",3 (Herbicidal rate of 40% or more and less than 70%)
same,"herbicidal effect rating, J: blackgrass",[28],0 (Herbicidal rate of 5% or less (almost no effect))
same,Herbicidal effect on B: Japanese bulrush (grade 0-5),[29]; 320 g/ha applied herbicide,2 (Herbicidal rate of 20% or more and less than 40%)
Cc1nn(C)c(=O)c(-c2c(-c3cccc4c3OCC4)sc3c(Cl)cccc23)c1O [4-098],"Herbicidal effect by foliage application, N: redroot pigweed",[1]; [30],3 (Herbicidal rate of 40% or more and less than 70%)
same,"Herbicidal effect by foliage application, J: blackgrass",[4]; [30],0 (Herbicidal rate of 5% or less (almost no effect))
same,"Herbicidal effect by foliage application, H: barnyard grass",[6]; [30],1 (Herbicidal rate of 5% or more and less than 20%)
same,"Herbicidal effect by foliage application, F: southern crabgrass",[8]; [30],3 (Herbicidal rate of 40% or more and less than 70%)
same,"Herbicidal effect by foliage application, I: wild oat",[9]; [30],0 (Herbicidal rate of 5% or less (almost no effect))
same,"Herbicidal effect by foliage application, K: Italian ryegrass",[10]; [30],0 (Herbicidal rate of 5% or less (almost no effect))
same,"Herbicidal effect by foliage application, R: persian speedwell",[12]; [30],5 (Herbicidal rate of 90% or more (almost completely withered))
same,herbicidal effect on barnyard grass (H),[14],4 (Herbicidal rate of 70% or more and less than 90%)
same,"Herbicidal effect by foliage application, P: chickweed",[15]; [30],5 (Herbicidal rate of 90% or more (almost completely withered))
same,"Herbicidal effect, A: late watergrass",[17]; [31],3 (Herbicidal rate of 40% or more and less than 70%)
same,"Herbicidal effect by foliage application, M: velvetleaf",[18]; [30],3 (Herbicidal rate of 40% or more and less than 70%)
same,"Herbicidal effect, C: oval-leafed pondweed",[21]; [31],0 (Herbicidal rate of 5% or less (almost no effect))
same,"Herbicidal effect by foliage application, G: green foxtail",[23]; [30],3 (Herbicidal rate of 40% or more and less than 70%)
same,"Herbicidal effect by foliage application, L: windgrass",[24]; [30],2 (Herbicidal rate of 20% or more and less than 40%)
same,herbicidal effect on rice flat sedge (E),[25],3 (Herbicidal rate of 40% or more and less than 70%)
same,herbicidal effect on Chinese sprangletop (D),[26],3 (Herbicidal rate of 40% or more and less than 70%)
same,"Herbicidal effect by foliage application, O: lambsquarters",[27]; [30],3 (Herbicidal rate of 40% or more and less than 70%)
same,"Herbicidal effect, B: Japanese bulrush",[29]; [31],0 (Herbicidal rate of 5% or less (almost no effect))
